Key:
[1] = test system: C. reinhardtii CC-1928; assay: Effect of copper on activity of hydrazones: in vitro growth inhibition of C. reinhardtii in TAP Cu minus / TAP Cu plus medium (Example 10); format: cell-based, Chlamydomonas reinhardtii; settings: test compound 1 μg/mL, 48 h; for inhibition of growth at 1 µg/mL: Chlamydomonas reinhardtii, TAP Cu minus medium, read-out: % Inhn. Minus Copper Observed; for % Inhn. Plus Copper Observed: TAP Cu plus medium (CuCl2)
Description: In vitro toxicity assays against C. reinhardtii CC-1928 (wild type mt+137c green in dark subclone) obtained from the Chlamydomonas Resource Center at Duke University were conducted using TAP liquid growth medium described by Gorman and Levine Proc. Natl. Acad. Sci. USA 1965, 54, 1665-1669 except that CuSO4.5H2O, normally included as a component of Hutner's trace element stock solution (Hutner et al. Proc. Am. Philos. Soc. 1950, 94, 152-170), was omitted. The TAP medium lacking Cu (TAP Cu minus) was prepared by adding 400 mg NH4Cl, 10 mL of 100× Tris-Acetate (242 g Tris-base and 100 mL glacial acetic acid in 1000 mL milli Q water), and 8.3 mL of 120.5× phosphate buffer (14.34 g K2HPO4 and 7.26 g KH2PO4 in 1000 mL milli Q water) to milli Q water to make a total volume of 1 liter. The medium was treated with 0.5 g Chelex 100 resin (Bio-Rad Analytical grade, 50-100 mesh, sodium form, cat#142-2822) by stirring at room temperature for 1 hour. 900 mL were decanted and 45.9 mg of CaCl2.2H2O, 90 mg of MgSO4.7H2O and 0.9 mL Hutner's trace elements lacking CuSO4.5H2O were added and the solution was filter-sterilized. Medium containing copper (TAP Cu plus) was prepared by adding CuCl2.2H2O to the TAP Cu minus medium at 20 μM. Test compounds were dissolved in dimethylsulfoxide (DMSO) at 2 mg/mL then dilutions in TAP Cu minus and TAP Cu plus media were prepared in sterilized microcentrifuge tubes at 2 μg/mL. 100 μL aliquots of diluted compound were dispensed into flat-bottomed 96-well microtiter plates. C. reinhardtii was maintained under 12 h of light on TAP agar plates at 18° C. A loopful of cells was added to 50 mL of TAP Cu minus medium and the culture incubated with shaking at 200 rpm at 27° C. for 24 h. The culture (10 to 20 mL aliquot) was centrifuged in a bench centrifuge at 2000 rpm for 2 min. The resulting cell pellet was resuspended in 5 mL sterile milli Q water (which had been treated with Chelex 100 resin using 0.5 g resin per liter of water by stirring at room temperature for 1 h), and recentrifuged. The cells were resuspended in TAP Cu minus medium, and the suspension adjusted to 2×10^5 spores per mL. Microtiter plates containing compounds as described above were inoculated with 100 μL of this cell suspension and the plates incubated at 27° C. for 48 h before assessing algal growth by measuring light scattering in a NepheloStar plate-reader. Growth inhibition was determined by comparing growth in the presence of test compound with growth in control wells lacking test compound. Results for growth inhibition by test compounds at 1 μg/mL in TAP Cu plus medium (% Inhn Plus Copper Observed) were compared with predicted values (% Inhn Plus Copper Predicted) that were calculated using the formula set forth by S. R. Colby in Weeds 1967, 15, 20-22 based on results obtained for the same compounds in TAP Cu minus medium (% Inhn Minus Copper Observed). […] Results illustrate that hydrazones and copper produce a synergistic algicidal effect towards C. reinhardtii.

[2] = test system: Synechocystis sp. strain 6803; assay: Effect of copper on activity of hydrazones: in vitro growth inhibition of Synechocystis in BG-11 Cu minus / Cu plus medium (Example 11); format: cell-based; settings: 72 h; for % Inhn. Plus Copper Observed: BG-11 Cu plus medium
Description: In vitro toxicity assays against the cyanobacterium (blue-green alga) Synechocystis sp. strain 6803 were conducted using BG-11 medium except that copper micronutrient, normally included as CuSO4.5H2O, was omitted. The medium, termed BG-11 Cu minus, was prepared by dissolving 1.5 g NaNO3, 40 mg K2HPO4, 6 mg citric acid, 1 mg Na2EDTA and 20 mg Na2CO3 in 1 liter of milli Q water and treating the solution with 0.5 g Chelex 100 resin (Bio-Rad Analytical grade, 50-100 mesh, sodium form, cat#142-2822) by stifling at room temperature for 1 h. 900 mL were decanted and 67.5 mg MgSO4.7H2O, 32.4 mg […], 5.4 mg ferric ammonium citrate and 0.9 mL trace metal mix A5 without copper (2.86 g H3BO3, 1.81 g MnCl2.4H2O, 222 mg ZnSO4.7H2O, 390 mg Na2MoO4.2H2O and Co(NO3)2.6H2O in 1 L Milli Q water) was added. The pH was adjusted to 7.1 and the medium was filter-sterilized. Medium containing copper (BG-11 Cu plus) was prepared by adding CuCl2.2H2O to the BG-11 Cu minus medium at 0.2 μM. Test compounds were dissolved in dimethylsulfoxide (DMSO) at 2 mg/mL then appropriate dilutions in BG-11 Cu minus and BG-11 Cu plus media were prepared in sterilized microcentrifuge tubes. 100 μL aliquots were dispensed into flat-bottomed 96-well microtiter plates. Synechocystis was maintained under 24 h of light on BG-11 agar plates at 27° C. A loopful of cells was added to 50 mL of BG-11 Cu minus growth medium and the culture was incubated with shaking at 200 rpm at 27° C. for 24 h. The culture (10 to 20 mL aliquot) was centrifuged in a bench centrifuge at 2400 rpm for 2 min. The resulting cell pellet was resuspended in 5 mL sterile milli Q water (which had been treated with Chelex 100 resin using 0.5 g resin per liter of water by stirring at room temperature for 1 h), and recentrifuged. The cells were resuspended in BG-11 Cu minus medium, and the suspension adjusted to 4×10^5 spores per mL. Microtiter plates containing compounds as described above were inoculated with 100 μL of this cell suspension and the plates incubated at 27° C. for 72 h before assessing algal growth by measuring light scattering in a NepheloStar plate reader. Growth inhibition was determined by comparing growth in the presence of test compound with growth in control wells lacking test compound. Results for growth inhibition by test compounds in BG-11 Cu plus medium (% Inhn Plus Copper Observed) were compared with predicted values (% Inhn Plus Copper Predicted) that were calculated using the formula set forth by S. R. Colby in Weeds 1967, 15, 20-22 based on-results obtained for the same compounds in BG-11 Cu minus medium (% Inhn Minus Copper Observed) and the inhibition attributed to copper chloride alone, as determined by comparing growth in copper-minus and copper-plus media without any test compound across experiments. Results illustrate that hydrazones and copper produce a synergistic algicidal effect towards Synechocystis.

[3] = Synechocystis, Test Concn. 0.05 μg/mL, BG-11 Cu minus medium, read-out: % Inhn. Minus Copper Observed
[4] = Synechocystis, Test Concn. 0.0125 μg/mL, BG-11 Cu minus medium, read-out: % Inhn. Minus Copper Observed

Row | Structure (SMILES) | inhibition of growth at 1 µg/mL [1] [%] | % Inhn. Plus Copper Observed [1] [%] | inhibition of growth at 0.05 µg/mL [2, 3] [%] | % Inhn. Plus Copper Observed ([2]; Test Concn. 0.05 μg/mL) [%] | melting point [°C] | inhibition of growth at 0.0125 µg/mL [2, 4] [%] | % Inhn. Plus Copper Observed ([2]; Test Concn. 0.0125 μg/mL) [%] | inhibition of growth at 0.025 µg/mL ([2]; Synechocystis, Test Concn. 0.025 μg/mL, BG-11 Cu minus medium, read-out: % Inhn. Minus Copper Observed) [%] | % Inhn. Plus Copper Observed ([2]; Test Concn. 0.025 μg/mL) [%]
1 | O=C(N/N=C/c1c(Cl)ccc(Cl)c1O)c1cccc(Cl)c1 [Compound 44] | 11 | 94 | 61 | 93 | 232 to 234 | – | – | – | –
2 | O=C(N/N=C/c1c(Cl)ccc(Cl)c1O)c1ccccc1O [Compound 46] | 0 | 92 | – | – | 260 to 262 | 37 | 80 | – | –
3 | O=C(N/N=C/c1cc(Cl)cc(C(F)(F)F)c1O)c1cccc(Cl)c1 [Compound 47] | -5 | 77 | – | – | 228 to 229 | 24 | 60 | – | –
4 | O=C(N/N=C/c1cc(Cl)cc(C(F)(F)F)c1O)c1ccccc1O [Compound 48] | 18 | 92 | 32 | 95 | 258 to 260 | – | – | – | –
5 | Cc1cccc(C(=O)N/N=C/c2cccc(Cl)c2O)c1 [Compound 50] | 6 | 97 | -7 | 95 | 166 to 169 | – | – | – | –
6 | O=C(N/N=C/c1cccc(Cl)c1O)c1cccc(Cl)c1 [Compound 51] | -13 | 96 | 17 | 97 | 174 to 178 | – | – | – | –
7 | O=C(N/N=C/c1cccc(Cl)c1O)c1ccc([N+](=O)[O-])cc1 [Compound 53] | 8 | 88 | 45 | 94 | 284 to 287 | – | – | – | –
8 | O=C(N/N=C/c1cccc(Cl)c1O)c1ccccc1O [Compound 54] | -8 | 75 | 37 | 88 | 266 to 268 | – | – | – | –
9 | Cc1ccc(C(=O)N/N=C/c2cccc(Cl)c2O)c(O)c1 [Compound 55] | -3 | 97 | 68 | 92 | 258 to 266 | – | – | – | –
10 | O=C(N/N=C/c1c(C(F)(F)F)ccc(Cl)c1O)c1ccccc1O [Compound 57] | -11 | 95 | 61 | 92 | 278 to 280 | – | – | – | –
11 | C/C(=N\NC(=O)c1c(C)cccc1O)c1cc(Cl)cc(Cl)c1O [Compound 58] | 3 | 93 | – | – | 245 | – | – | 46 | 64
12 | C/C(=N\NC(=O)c1ccc(C)cc1)c1cccc(Cl)c1O [Compound 59] | -6 | 92 | 1 | 93 | 195 to 200 | – | – | – | –
13 | C/C(=N\NC(=O)c1ccc(Br)cc1)c1cccc([N+](=O)[O-])c1O [Compound 60] | -50 | 89 | – | – | 244 to 252 | 33 | 50 | – | –
14 | C/C(=N\NC(=O)c1ccccc1)c1cc(Br)cc(Br)c1O [Compound 61] | -56 | 94 | 61 | 96 | 242 to 245 | – | – | – | –
15 | C/C(=N\NC(=O)c1ccc(Cl)cc1)c1cc(F)cc(F)c1O [Compound 62] | 0 | 95 | 60 | 95 | 276 to 280 | – | – | – | –
